The numbers were not newly measured in patent US20210128676A1, “METHOD OF TREATING PATIENTS WITH H[…] TYPE 1 AND LOW MEAN ARTERIAL PRESSURE” (Mallinckrodt Hospital Products IP Unlimited Company, priority 2019, published 2021), which cites them from elsewhere.

The structures appear in SMILES notation. Positions of bridges follow the written chain, without caps; N, C: chain ends. Residues, ends and D or L forms follow the SMILES beside them.

A word on the half-life: it is the time in which the quantity being followed falls by half.

For the series the following is noted: in vivo.

For the molecule `NCCCC[C@H](NC(=O)[C@@H]1CCCN1C(=O)[C@@H]1CSSC[C@H](NC(=O)CNC(=O)CNC(=O)CN)C(=O)N[C@@H](Cc2ccc(O)cc2)C(=O)N[C@@H](Cc2ccccc2)C(=O)N[C@@H](CCC(N)=O)C(=O)N[C@@H](CC(N)=O)C(=O)N1)C(=O)NCC(N)=O` [Terlipressin, N—[N—(N-glycylglycyl)glycyl]-8-L-lysinevasopressin] (H-GGGCYFQNCPKG-NH2; disulfide 4-9 (inferred)), the half-life was 6 h.
Take `NC(=O)CC[C@@H]1NC(=O)[C@H](Cc2ccccc2)NC(=O)[C@H](Cc2ccc(O)cc2)NC(=O)[C@@H](N)CSSC[C@@H](C(=O)N2CCC[C@H]2C(=O)N[C@@H](CCCN=C(N)N)C(=O)NCC(N)=O)NC(=O)[C@H](CC(N)=O)NC1=O` [vasopressin]: the duration of action was 30 to 60 min and the half-life was 0.1 h.
